From US11998610B2, “Conjugates and methods of using the same” (Flagship Pioneering Innovations V, Inc., priority 2018, dated 2024)

Key:
E. coli Nissle 1917 = test: Payload release in the presence of fecal matter, ClbP positive E. coli; type: cell-based; settings: 10 μM compound, anaerobic, 37° C., 20 h, LCMS
From the text: (§1) This example is representative of the methods described in Example 103. Fecal samples were subjected to metagenomic whole-genome shotgun sequencing followed by querying the dataset for the presence of the clbP gene or by attempting to amplify the gene with primers specific for it by qPCR. Samples that gave a signal below the detection limit were used in subsequent steps. The fecal sample was resuspended as a 15% (w/v) slurry in Anaerobic Phosphate Buffer Saline.
(§2) Following steps 1 and 2 as detailed in Example 98, E. coli CFT073 ATCC 700928, E. coli Nissle 1917, or E. coli BL21(DE3) were grown in liquid culture.
(§3) In an anaerobic chamber, the E. coli strains were added to the fecal samples obtained in step 1 at a dilution level calculated to represent 0, 1, 10, 50, 90, 99, or 100% of all organisms present in PRAS dilution blank on a 200 μL volume. The test compound (10 μM final concentration) was added to the mixture. The test compound was also added to a bacteria-free media control under similar conditions. The plate was sealed and incubated at 37° C. for 20 h. Under similar conditions, a standard curve of both the starting material and the payload compound was made in bacteria-free media.
(§4) After 20 h, an aliquot was tested for breakdown and release of a payload by LCMS by diluting serially to a final dilution of 1:100 first with Acetonitrile (10× dilution) and then with (1:1) Mobile Phase A-0.1% Formic Acid in Water:Mobile Phase B-0.1% Formic acid in Acetonitrile (1 OX dilution), with absolute quantification compared to the external standard curve. In an ideal case, the amount of payload released in the reaction(s) with ClbP-encoding E. coli was >75% of the theoretical maximum, and none was released in the E. coli BL21(DE3) and media-alone conditions. In an acceptable case, the amount of payload released in the reaction(s) with ClbP-encoding E. coli was 25-75% of the theoretical maximum, and <25% of the theoretical maximum was released in the E. coli BL21(DE3) and media-alone conditions. In a non-preferred case, the amount of payload released in the reactions(s) with ClbP-encoding E. coli was <25% of the theoretical maximum, and >25% of the theoretical maximum was released in the E. coli BL21(DE3) and media-alone conditions.

E. coli BL21(DE3) [1] = test: Cell-based assay with ClbP with LCMS, ClbP negative strain; settings: 10 μM compound, 37° C., 20 h
Procedure, shortened: (§5)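 Compound (10 μM final) incubated 20 h at 37° C, aerobically, with 1:40-diluted overnight cultures of ClbP-positive E. coli or negative BL21(DE3), in duplicate, alongside uninoculated LB. Remaining parent quantified by LC-MS/MS (MRM) after acetonitrile quench, expressed as percent of media-alone.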

E. coli BL21(DE3) [2] = test: Payload release in the presence of fecal matter, ClbP negative E. coli; type: cell-based; settings: 10 μM compound, anaerobic, 37° C., 20 h, LCMS
From the text: as §1, §2, §3, §4

[3] = system: E. coli CFT073 ATCC 700928 and/or E. coli Nissle 1917; test: Cell-based assay with ClbP with LCMS, ClbP positive strain
Procedure, shortened: as §5

CT26.CL25 cells = test: Cell viability readout (CellTiter-Glo) with bacteria-free media; type: cell-based, mouse; settings: 10 nM compound, CT26.CL25 cells, 72 h, CellTiter-Glo
Method: Example 100: Cell-Based Assay of Bacterial Enzymes with Mammalian CT26.CL25 Mouse Colorectal Carcinoma Viability Readout
Bacteria-free media was incubated with the indicated test compound. ((R)—N1-(2-(methylamino)ethyl)-2-octanamidosuccinamide, a recognition element-linker conjugate lacking a payload, was serially diluted 1:1000 in DMSO and […] in medium+10% FBS to give a final concentration of 10 nM. Compound 35, Compound 76, Compound 77, Compound 78, Compound 79, and SN-38 were serially diluted 1:1000 in DMSO and 1:1000 in medium to give a final concentration of 10 nM, and then the bacteria-free supernatants were tested for their ability to kill mammalian cells. As an additional control, the test compound will also be incubated with bacteria-free media. The above steps can also be performed in the presence of E. coli (CFT073 ATCC 700928, Nissle 1917, or BL21 (DE3)) to effect cleavage of the conjugates of the application.
On Day 1, CT26.CL25 cells (15,000 cells/well) were seeded in triplicate into a 24 well plate and incubated overnight in 100 μL of complete medium. The reactions (bacteria or media blank) was pelleted by centrifugation, and then the supernatant was passed through a 0.2 μm sterile filter to remove residual bacteria.
On Day 2, 300 μL of a 10 nM solution of each compound in media were applied to separate wells of CT26.CL25 cells as prepared on Day 1. The cells were incubated at 37° C. for 72 h. After this point, viability was assessed using a CellTiter-Glo kit.
Binning of the compounds was achieved by measuring cell growth or arrest (e.g. remaining cells are >90% viable, >80% viable, >70% viable, >60% viable, >50% viable, >40% viable, >30% viable, >20% viable, or >10% viable).

Row | SMILES | % payload released in ClbP positive (Nissle 1917) at 1:1 ratio of E. coli to fecal bacteria (E. coli Nissle 1917) | % Remaining in ClbP Negative Relative to Media-Only (E. coli BL21(DE3) [1]) | % payload released in ClbP negative (BL21 DE3) at 1:1 ratio of E. coli to fecal bacteria (E. coli BL21(DE3) [2]) | % Remaining in ClbP Positve Relative to Media-Only ([3]; ClbP-encoding E. coli, 10 μM compound, 37° C., 20 h) | Difference between the ClbP Positive and ClbP Negative release profiles ([3]; conclusion from Table 4) | Bacteria-free media (Luminescence, average of three runs) (CT26.CL25 cells)
1 | CCCCCCCC(=O)N[C@H](CC(N)=O)C(=O)NCCCC(=O)OCn1cc(F)c(=O)[nH]c1=O [Example 72B, (5-fluoro-2,4-dioxo-3,4-dihydropyrimidin-1(2H)-yl)methyl (R)-4-(4-amino-2-octanamido-4-oxobutanamido)butanoate] | 41.1% | − (>75% compound remaining in the 20 μM WT ClbP reaction relative to the no-enzyme control) | 5.4% | ++ (<25% compound remaining in the 20 μM WT ClbP reaction relative to the control) | particularly favorable difference | –
2 | CCCCCCCC(=O)N[C@H](CC(N)=O)C(=O)NCCN(C)C(=O)Oc1ccc2nc3c(c(CC)c2c1)Cn1c-3cc2c(c1=O)COC(=O)[C@]2(O)CC [Example 76, (S)-4,11-diethyl-4-hydroxy-3,14-dioxo-3,4,12,14-tetrahydro-1H-pyrano[3′,4′:6,7]indolizino[1,2-b]quinolin-9-yl (2-((R)-4-amino-2-octanamido-4-oxobutanamido)ethyl)(methyl)carbamate] | 25% | – | 0% | – | – | 282345
3 | CCCCCCNC(=O)N[C@H](CC(N)=O)C(=O)NCCN(C)C(=O)Oc1ccc2nc3c(c(CC)c2c1)Cn1c-3cc2c(c1=O)COC(=O)[C@]2(O)CC [Example 77, (S)-4,11-diethyl-4-hydroxy-3,14-dioxo-3,4,12,14-tetrahydro-1H-pyrano[3′,4′:6,7]indolizino[1,2-b]quinolin-9-yl (2-((R)-4-amino-2-(3-hexylureido)-4-oxobutanamido)ethyl)(methyl)carbamate] | 0% | – | 0% | – | – | 345334
4 | CCc1c2c(nc3ccc(OC(=O)N(C)CCNC(=O)[C@@H](CC(N)=O)NC(=O)CCCc4ccccc4)cc13)-c1cc3c(c(=O)n1C2)COC(=O)[C@]3(O)CC [Example 78, (S)-4,11-diethyl-4-hydroxy-3,14-dioxo-3,4,12,14-tetrahydro-1H-pyrano[3′,4′:6,7]indolizino[1,2-b]quinolin-9-yl (2-((R)-4-amino-4-oxo-2-(4-phenylbutanamido)butanamido)ethyl)(methyl)carbamate] | 0% | – | 0% | – | – | 317645
5 | CCCCCCCC(=O)N[C@H](CC(N)=O)C(=O)NCCN(C)C(=O)O[C@]1(CC)C(=O)OCc2c1cc1n(c2=O)Cc2c-1nc1ccc(O)cc1c2CC [Example 79, (S)-4,11-diethyl-9-hydroxy-3,14-dioxo-3,4,12,14-tetrahydro-1H-pyrano[3′,4′:6,7]indolizino[1,2-b]quinolin-4-yl (2-((R)-4-amino-2-octanamido-4-oxobutanamido)ethyl)(methyl)carbamate] | 0% | – | 0% | – | – | 288245
